Target: T1, mAChR M1 (UniProt P11229)
T1 sequence (P11229 1-460): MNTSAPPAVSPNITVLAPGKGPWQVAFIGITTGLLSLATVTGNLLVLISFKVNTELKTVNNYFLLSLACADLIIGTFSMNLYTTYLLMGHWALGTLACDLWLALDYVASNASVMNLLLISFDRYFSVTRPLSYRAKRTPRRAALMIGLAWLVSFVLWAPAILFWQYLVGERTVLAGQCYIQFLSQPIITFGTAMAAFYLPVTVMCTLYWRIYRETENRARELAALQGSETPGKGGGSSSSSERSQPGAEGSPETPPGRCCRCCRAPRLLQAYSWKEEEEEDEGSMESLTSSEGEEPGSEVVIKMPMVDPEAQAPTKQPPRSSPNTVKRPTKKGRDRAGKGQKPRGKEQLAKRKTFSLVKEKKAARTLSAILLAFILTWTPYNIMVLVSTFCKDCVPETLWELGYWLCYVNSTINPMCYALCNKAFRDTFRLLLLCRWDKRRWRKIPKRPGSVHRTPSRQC
Assay: mAChR M1 cell-based functional assay (calcium mobilization, potentiation of EC20 acetylcholine response)
Conditions: for M1 AChmax (%): maximal response as % of ACh maximum, CHO-K1 cells expressing M1; for EC50: positive allosteric modulator activity, concentration-dependent increase in EC20 acetylcholine response, CHO-K1 cells, >10 μM estimated where no plateau but >20% increase in ACh response
Source text: Chinese hamster ovary (CHO-K1) cells stably expressing rat (r)M1 were purchased from the American Type Culture Collection and cultured according to their indicated protocol. CHO cells stably expressing human (h)M2, hM3, and hM5 were described previously (Levey, et al., 1991); hM1 and hM4 cDNAs were purchased from Missouri S&T cDNA Resource; rM4 cDNA was provided by T. I. Bonner (National Institutes of Health, Bethesda, Md.). rM2 and rM3 were cloned from a rat brain cDNA library and sequence verified. hM1, rM2, rM3, hM4, and rM4 cDNAs were used to stably transfect CHO-K1 cells purchased from the American Type Culture Collection using Lipofectamine2000. To make stable rM2, hM2, rM3, hM4, and rM4 cell lines for use in calcium mobilization assays, these cells also were stably transfected with a chimeric G-protein (Gqi5) (provided by B. R. Conklin, University of California, San Francisco) using Lipofectamine 2000. rM1, hM1, rM3, hM3, rM5, and hM5 cells were grown in Ham's F-12 medium containing 10% heat-inactivated fetal bovine serum (FBS), 20 mM HEPES, and 50 μg/mL G418 sulfate. rM2-Gqi5, hM2-Gqi5, and hM4-Gqi5 cells were grown in the same medium also containing 500 μg/mL Hygromycin B. Stable rM4-Gqi5 cells were grown in DMEM containing 10% heat-inactivated FBS, 20 mM HEPES, 400 μg/mL G418 sulfate, and 500 μg/mL Hygromycin B.
For high throughput measurement of agonist-evoked increases in intracellular calcium, CHO-K1 cells stably expressing muscarinic receptors were plated in growth medium lacking G418 and hygromycin at 15,000 cells/20 μL/well in Greiner 384-well black-walled, tissue culture (TC)-treated, clear-bottom plates (VWR). Cells were incubated overnight at 37° C. and 5% CO2. The next day, cells were washed using an ELX 405 (BioTek) with four washes (80 μL) of assay buffer then aspirated to 20 μL. Next, 20 μL of 16 μM Fluo-4/acetoxymethyl ester (Invitrogen, Carlsbad, Calif.) prepared as a 2.3 mM stock in DMSO and mixed in a 1:1 ratio with 10% (w/v) Pluronic F-127 and diluted in assay buffer was added to the wells and the cell plates were incubated for 50 min at 37° C. and 5% CO2. Dye was removed by washing with the ELX 405 (four 80 μL washes of assay buffer) then aspirated to 20 μL. Compound master plates were formatted in an 11 point CRC format (1:3 dilutions) in 100% DMSO with a starting concentration of 10 mM using the BRAVO liquid handler (Agilent). Test compound CRCs were then transferred to daughter plates (240 nL) using the Echo acoustic plate reformatter (Labcyte, Sunnyvale, Calif.) and then diluted into assay buffer (40 μL) to a 2× stock using a Thermo Fisher Combi (Thermo Fisher Scientific, Waltham, Mass.).
Calcium flux was measured using the Functional Drug Screening System (FDSS) 6000 (Hamamatsu Corporation, Tokyo, Japan) as an increase in the fluorescent static ratio. Compounds were applied to cells (20 μL, 2×) using the automated system of the FDSS 6000 at 4 s into the 300 s protocol and the data were collected at 1 Hz. At 144 s into the 300s protocol, 10 μL of an EC20 concentration of the muscarinic receptor agonist acetylcholine was added (5×), followed by the addition of 12 μL an EC8O concentration of acetylcholine at the 230 s time point (5×). Agonist activity was analyzed as a concentration-dependent increase in calcium mobilization upon compound addition. Positive allosteric modulator activity was analyzed as a concentration-dependent increase in the EC20 acetylcholine response. Antagonist activity was analyzed as a concentration-dependent decrease in the EC80 acetylcholine response. Concentration-response curves were generated using a four-parameter logistical equation in XLfit curve fitting software (IDBS, Bridgewater, N.J.) for Excel (Microsoft, Redmond, Wash.) or Prism (GraphPad Software, Inc., San Diego, Calif.). […]

Row | SMILES | M1 AChmax (%) | EC50 [nM]
1 | Cn1cc2c(-c3cc(F)c(CN4Cc5ccc6nncn6c5C4=O)c(F)c3)cccc2n1 [Compound 1, 7-(2,6-difluoro-4-(2-methyl-2h-indazol-4-yl)benzyl)-6,7-dihydro-8H-pyrrolo[3,4-e][1,2,4]triazolo [4,3-a]pyridin-8-one] | 72 (n = 2) % | –
2 | Cn1cc2c(-c3ccc(CN4Cc5ccc6nncn6c5C4=O)c(F)c3)cccc2n1 [Compound 2, 7-(2-fluoro-4-(2-methyl-2H-indazol-4-yl)benzyl)-6,7-dihydro-8H-pyrrolo [3,4-e][1,2,4]triazol[4,3-a]pyridin-8-one] | 78% | 688
3 | Cn1cc(-c2cc(F)c(CN3Cc4ccc5nncn5c4C3=O)c(F)c2)cn1 [Compound 3] | 83% | 656
4 | O=C1c2c(ccc3nncn23)CN1Cc1ccc(-c2cnc3ccccc3c2)cc1F [Compound 4] | 73% | 1750
5 | O=C1c2c(ccc3nncn23)CN1Cc1c(F)cc(-c2ccc3ncccc3c2)cc1F [Compound 5] | 81% | 743
6 | Cn1cc2cc(-c3cc(F)c(CN4Cc5ccc6nncn6c5C4=O)c(F)c3)ccc2n1 [Compound 6] | 84% | 488
7 | COc1ccc(-c2cc(F)c(CN3Cc4ccc5nncn5c4C3=O)c(F)c2)cn1 [Compound 7] | 70% | 2640
8 | Cc1ccc(-c2ccc(CN3Cc4ccc5nncn5c4C3=O)c(F)c2)c2cn(C)nc12 [Compound 8] | 82% | 1060
9 | Cn1cc2cc(-c3ccc(CN4Cc5ccc6nncn6c5C4=O)c(F)c3)ccc2n1 [Compound 9, 7-(2-fluoro-4-(2-methyl-2H-indazol-5-yl)benzyl)-6,7-dihydro-8H-pyrrolo [3,4-e][1,2,4]triazolo[4,3-a]pyridin-8-one] | 90% | 502
10 | O=C1c2c(ccc3nncn23)CN1Cc1ccc(-c2ccc3ncccc3c2)cc1F [Compound 10] | 84% | 1570
11 | Cn1cc(-c2ccc(CN3Cc4ccc5nncn5c4C3=O)c(F)c2)cn1 [Compound 11] | 86% | 856
12 | O=C1c2c(ccc3nncn23)CN1Cc1c(F)cc(-c2cnc3ccccc3c2)cc1F [Compound 13] | 57% | 1820
13 | Cc1nnc2ccc3c(n12)C(=O)N(Cc1c(F)cc(-c2cnn(C)c2)cc1F)C3 [Compound 14] | 79% | 1790
14 | Cc1nnc2ccc3c(n12)C(=O)N(Cc1c(F)cc(-c2ccc4nn(C)cc4c2)cc1F)C3 [Compound 15] | 76% | 1240
15 | Cc1nnc2ccc3c(n12)C(=O)N(Cc1ccc(-c2ccc4nn(C)cc4c2)cc1F)C3 [Compound 16] | 83% | 1210
16 | Cc1cc(-c2ccc(CN3Cc4ccc5nncn5c4C3=O)c(F)c2)cc2cn(C)nc12 [Compound 17] | 81% | 618
17 | Cc1ccc(-c2ccc(CN3Cc4ccc5nnc(C)n5c4C3=O)c(F)c2)c2cn(C)nc12 [Compound 18] | 82% | 2140
18 | Cc1nnc2ccc3c(n12)C(=O)N(Cc1c(F)cc(-c2cccc4nn(C)cc24)cc1F)C3 [Compound 19] | 81% | 1410
19 | Cc1cc(-c2ccc(CN3Cc4ccc5nnc(C)n5c4C3=O)c(F)c2)cc2cn(C)nc12 [Compound 20] | 84% | 2100
20 | Cn1cc(-c2ccc(F)c(CN3Cc4ccc5nncn5c4C3=O)c2)cn1 [Compound 21] | 36.8% | > 10000

Row | SMILES | M1 AChmax (%) | EC50 [nM]
21 | Cn1cc2cc(-c3ccc(F)c(CN4Cc5ccc6nncn6c5C4=O)c3)ccc2n1 [Compound 22] | 35.3% | 1310
22 | Cn1cc2c(-c3ccc(F)c(CN4Cc5ccc6nncn6c5C4=O)c3)cccc2n1 [Compound 23] | 56.4% | 1350
23 | O=C1c2c(ccc3nncn23)CN1Cc1cc(-c2ccc3ncccc3c2)ccc1F [Compound 25] | – | > 30000
24 | COc1ccc(-c2ccc(F)c(CN3Cc4ccc5nncn5c4C3=O)c2)cn1 [Compound 26] | – | > 30000
25 | Cn1cc(-c2ccc(CN3Cc4ccc5nccn5c4C3=O)c(F)c2)cn1 [Compound 27] | 70.1% | 2260
26 | Cn1cc(-c2cc(F)c(CN3Cc4ccc5nccn5c4C3=O)c(F)c2)cn1 [Compound 28, 2-(2,6-difluoro-4-(1-methyl-1H-pyrazol-4-yl)benzyl)-2,3-dihydro-1H-imidazo[1,2-a]pyrrolo[3,4-e]pyridin-1-one] | 67.7% | 2370
27 | Cc1cn2c3c(ccc2n1)CN(Cc1c(F)cc(-c2cnn(C)c2)cc1F)C3=O [Compound 29] | – | > 30000
28 | Cn1cc(-c2ccc(CN3Cc4ccc5ncnn5c4C3=O)c(F)c2)cn1 [Compound 30] | 85.9% | 677
29 | Cn1cc(-c2cc(F)c(CN3Cc4ccc5ncnn5c4C3=O)c(F)c2)cn1 [Compound 31, 7-(2,6-difluoro-4-(1-methyl-1H-pyrazol-4-yl)benzyl)-6,7-dihydro-8H-pyrrolo[3,4-e][1,2,4]triazolo[1,5-a]pyridin-8-one] | 85.3% | 1630
30 | Cn1cc2c(-c3cc(F)c(CN4Cc5ccc6nccn6c5C4=O)c(F)c3)cccc2n1 [Compound 32] | 72% | 1400
31 | Cn1cc2c(-c3ccc(CN4Cc5ccc6nccn6c5C4=O)c(F)c3)cccc2n1 [Compound 33] | 65% | 2200
32 | Cn1cc2cc(-c3ccc(CN4Cc5ccc6nccn6c5C4=O)c(F)c3)ccc2n1 [Compound 34] | 62% | 3900
33 | Cn1cc2cc(-c3cc(F)c(CN4Cc5ccc6nccn6c5C4=O)c(F)c3)ccc2n1 [Compound 35] | 42% | –
34 | Cc1ccc(CN2Cc3ccc4nccn4c3C2=O)cn1 [Compound 36] | 25% | > 10000
35 | O=C1c2c(ccc3nccn23)CN1Cc1ccc(-n2ccnn2)nc1 [Compound 37] | 26% | > 10000
36 | O=C1c2c(ccc3nccn23)CN1Cc1ccc(N2CCOCC2)nc1 [Compound 38] | 26% | > 10000
37 | O=C1c2c(ccc3nccn23)CN1Cc1c(F)cc(-c2ccc3ncccc3c2)cc1F [Compound 39] | 28% | –
38 | O=C1c2c(ccc3nccn23)CN1Cc1ccc(-n2cccn2)cc1F [Compound 40] | 26% | > 10000
39 | CNC(=O)c1ccc(CN2Cc3ccc4nccn4c3C2=O)cc1 [Compound 41] | 38% | –
40 | O=C1c2c(ccc3nccn23)CN1Cc1ccc(-n2nccn2)cc1 [Compound 42] | 35% | > 10000
